Each structure is given as a SMILES string. Read-outs that look alike come from different tables or passages of the source.

This is an account of results in US7728001B2 (priority 2004, dated 2010).

Data set [1] concerns rhesus monkeys. The settings on record: nonhuman primates, recent report; cited from earlier work.
Data set [2] concerns humans. The following applies: cited from earlier work.
For data set [3], the target named is serotonin 5-HT2A receptor (Homo sapiens, UniProt P28223). The following applies: cited from earlier work.
Data set [4] deals with opioid receptors. The data set is classed as biochemical.
The test system of data set [5] is rhesus monkeys. Kind of data set: behavioral / discriminative stimulus effects, generalization to U69,593. The data set is classed as in vivo. Set-up: generalization to U69,593: dose or concentration left out as unconfirmed. As to the method: In an effort to further understand the in vivo pharmacology of these derivatives, propionate 9 was evaluated for behavioral effects in nonhuman primates in a pilot study. […] Propionate 9 generalized to U69,593 in only one of two rhesus monkeys tested, up to the highest dose that could be administered ([…], s.c.).

The target in data set [6] is κ receptors (Homo sapiens, UniProt P41145). Kind of data set: biochemical. The data set is classed as binding.
Data set [7] deals with μ receptors (Homo sapiens, UniProt P35372). Kind of data set: opioid receptor binding affinity, [^125I]IOXY as radioligand (μ). The settings on record: for Ki: [^125I]IOXY radioligand.
In data set [8] the target is δ receptors (Homo sapiens, UniProt P41143). Kind of data set: biochemical. The data set is classed as binding.
δ receptors, sequence (P41143 whole entry): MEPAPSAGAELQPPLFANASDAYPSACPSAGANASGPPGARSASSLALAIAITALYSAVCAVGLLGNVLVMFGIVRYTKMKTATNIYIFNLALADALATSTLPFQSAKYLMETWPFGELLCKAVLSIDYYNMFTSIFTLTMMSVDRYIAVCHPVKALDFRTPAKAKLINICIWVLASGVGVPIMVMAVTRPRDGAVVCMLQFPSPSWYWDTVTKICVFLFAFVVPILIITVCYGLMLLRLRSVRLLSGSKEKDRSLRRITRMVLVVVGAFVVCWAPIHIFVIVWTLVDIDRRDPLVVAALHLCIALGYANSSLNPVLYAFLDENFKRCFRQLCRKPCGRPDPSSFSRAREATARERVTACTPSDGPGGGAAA

κ receptors, sequence (P41145 whole entry): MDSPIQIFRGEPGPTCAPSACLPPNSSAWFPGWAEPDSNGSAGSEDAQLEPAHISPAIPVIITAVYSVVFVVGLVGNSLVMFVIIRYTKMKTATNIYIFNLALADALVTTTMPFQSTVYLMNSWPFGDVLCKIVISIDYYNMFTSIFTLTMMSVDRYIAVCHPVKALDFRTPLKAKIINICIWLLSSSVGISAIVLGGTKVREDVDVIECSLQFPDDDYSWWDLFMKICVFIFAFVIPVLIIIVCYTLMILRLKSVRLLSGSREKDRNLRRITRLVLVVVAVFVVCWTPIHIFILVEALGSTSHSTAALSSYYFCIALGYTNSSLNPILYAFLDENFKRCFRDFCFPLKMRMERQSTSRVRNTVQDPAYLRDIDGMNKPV
μ receptors, sequence (P35372 whole entry): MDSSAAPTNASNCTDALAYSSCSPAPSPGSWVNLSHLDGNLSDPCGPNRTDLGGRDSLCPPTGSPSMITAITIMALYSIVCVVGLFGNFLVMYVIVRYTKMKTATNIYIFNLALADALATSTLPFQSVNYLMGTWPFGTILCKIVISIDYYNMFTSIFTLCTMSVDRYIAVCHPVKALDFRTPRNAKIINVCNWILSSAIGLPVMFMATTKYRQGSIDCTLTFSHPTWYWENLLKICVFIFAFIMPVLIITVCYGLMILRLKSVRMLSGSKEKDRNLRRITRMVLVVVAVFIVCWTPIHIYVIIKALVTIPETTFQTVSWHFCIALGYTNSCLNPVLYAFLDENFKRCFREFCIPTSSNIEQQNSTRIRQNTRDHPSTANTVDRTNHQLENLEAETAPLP
serotonin 5-HT2A receptor, sequence (P28223 whole entry): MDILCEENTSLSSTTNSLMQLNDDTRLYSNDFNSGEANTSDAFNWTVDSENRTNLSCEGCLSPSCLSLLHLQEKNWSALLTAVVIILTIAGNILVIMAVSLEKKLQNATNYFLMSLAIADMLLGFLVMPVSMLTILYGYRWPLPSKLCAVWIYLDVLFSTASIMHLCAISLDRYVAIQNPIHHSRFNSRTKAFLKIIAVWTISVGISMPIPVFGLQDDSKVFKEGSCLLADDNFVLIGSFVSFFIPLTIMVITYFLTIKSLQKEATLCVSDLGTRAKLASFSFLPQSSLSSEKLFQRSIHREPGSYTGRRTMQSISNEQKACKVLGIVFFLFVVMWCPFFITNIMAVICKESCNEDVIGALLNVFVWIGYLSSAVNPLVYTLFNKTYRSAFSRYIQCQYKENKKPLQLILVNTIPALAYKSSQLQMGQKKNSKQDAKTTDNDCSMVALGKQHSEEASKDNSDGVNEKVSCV

As usually defined, the melting point is the temperature of the solid-liquid transition. With `COC(=O)[C@@H]1C[C@H](OC(C)=O)C(=O)[C@H]2[C@@]1(C)CC[C@H]1C(=O)O[C@H]([C@]3(O)[C@H](OC)O[C@H](OC)[C@H]3O)C[C@]21C`, the melting point is 272 to 274 °C.

Turning to `COC(=O)[C@@H]1C[C@H](OC(C)=O)C(=O)[C@H]2[C@@]1(C)CC[C@H]1C(=O)O[C@H]([C@]3(O)[C@@H](OC)O[C@@H](OC)[C@H]3O)C[C@]21C`, the melting point lay within 151 to 153 °C.

As for `COC(=O)[C@@H]1C[C@H](OC(C)=O)C(=O)[C@H]2[C@@]1(C)CC[C@H]1C(=O)O[C@H](c3ccoc3)C[C@]21C` [Compound 1, Salvinorin A], the discriminative stimulus effect entry in [1] is “discriminative stimulus effect similar to the high efficacy κ agonist U69,593”. Further, in data set [2], the “smoked dose producing profound hallucinations” value is 200 to 500 µg. Also, the “activity at the serotonin 5-HT2A receptor” value in data set [3] was “no activity”. Also, the functional activity result in data set [4] ([^35S]GTPγS assay) is listed as “agonists”.

A word on the Ki: it is the equilibrium dissociation constant of an inhibitor or competing ligand from its target. As for `CCC(=O)O[C@H]1C[C@@H](C(=O)OC)[C@]2(C)CC[C@H]3C(=O)O[C@H](c4ccoc4)C[C@]3(C)[C@H]2C1=O` [Compound 9, (2S,4aR,6aR,7R,9S,10aS,10bR)-9-(propionyloxy)-2-(3-furanyl)dodecahydro-6a,10b-dimethyl-4,10-dioxo-2H-naphtho[2,1-c]pyran-7-carboxylic acid methyl ester], the behavioral effect result in [5] (nonhuman primates, pilot study, preliminary results) is “partial κ agonist”. Moreover, in data set [5] (rhesus monkeys, up to highest dose, s.c.), the “generalization to U69,593” value is “one of two”. Also, in data set [6] (read-out: Ki at κ receptors), the Ki turned out to be 1.8 nM. Besides, the functional activity result in data set [4] is given as “agonists”.

In the case of `COC(=O)[C@@H]1C[C@H](OC(=O)C(C)C)C(=O)[C@H]2[C@@]1(C)CC[C@H]1C(=O)O[C@H](c3ccoc3)C[C@]21C` [Compound 10, (2S,4aR,6aR,7R,9S,10aS,10bR)-9-(isobutyryloxy)-2-(3-furanyl)-dodecahydro-6a,10b-dimethyl-4,10-dioxo-2H-naphtho[2,1-c]pyran-7-carboxylic acid methyl ester], in data set [6], the inhibition constant (Ki) is 2980 nM and the “fold reduction of affinity at κ receptors compared to 9” value is on record as “approximately 10 fold”. Moreover, the Ki in [6] (read-out: Ki at κ receptors) amounted to 19 nM.

Take `C=C(C)C(=O)O[C@H]1C[C@@H](C(=O)OC)[C@]2(C)CC[C@H]3C(=O)O[C@H](c4ccoc4)C[C@]3(C)[C@H]2C1=O` [Compound 11, (2S,4aR,6aR,7R,9S,10aS,10bR)-9-(2-methylacryloyloxy)-2-(3-furanyl)-dodecahydro-6a,10b-dimethyl-4,10-dioxo-2H-naphtho[2,1-c]pyran-7-carboxylic acid methyl ester]: in data set [6], the affinity, expressed as Ki, was 260 nM and the “fold increase in affinity, printed 'at κ receptors', compared to 10” value is listed as roughly 11 fold. For the same molecule, in [6] (read-out: Ki at κ receptors), the Ki came to 42 nM.

Take `COC(=O)C(=O)O[C@H]1C[C@@H](C(=O)OC)[C@]2(C)CC[C@H]3C(=O)O[C@H](c4ccoc4)C[C@]3(C)[C@H]2C1=O` [Compound 12, Oxalic acid methyl ester (2S,4aR,6aR,7R,9S,10aS,10bR)-7-carbomethoxy-2-(3-furanyl)dodecahydro-6a,10b-dimethyl-4,10-dioxo-2H-naphtho[2,1-c]pyran-9-yl ester]: the “fold loss of affinity at κ receptors compared to 11” value in [6] worked out at 10 fold. Besides, the Ki in [6] (read-out: Ki at κ receptors) was determined as 430 nM.

Turning to `COC(=O)[C@@H]1C[C@H](OC(=O)c2ccccc2)C(=O)[C@H]2[C@@]1(C)CC[C@H]1C(=O)O[C@H](c3ccoc3)C[C@]21C` [Compound 13, (2S,4aR,6aR,7R,9S,10aS,10bR)-9-(benzoyloxy)-2-(3-furanyl)-dodecahydro-6a,10b-dimethyl-4,10-dioxo-2H-naphtho[2,1-c]pyran-7-carboxylic acid methyl ester], the “fold loss/decrease in affinity at κ receptors compared to 1” value (from here on “fold loss/decrease in affinity”) in [6] is recorded as 47 fold. In data set [6] (read-out: Ki at κ receptors), the inhibitory constant (Ki) was found to be 90 nM. In data set [4], the functional activity result was “agonists”. Besides, in data set [7], the “selectivity for μ opioid receptor” value is given as “binds selectively to the μ opioid receptor” and the inhibitory constant (Ki) is 12 nM.

With `COC(=O)[C@@H]1C[C@H](OC(=O)c2cccnc2)C(=O)[C@H]2[C@@]1(C)CC[C@H]1C(=O)O[C@H](c3ccoc3)C[C@]21C` [Compound 14, Nicotinic acid (2S,4aR,6aR,7R,9S,10aS,10bR)-7-carbomethoxy-2-(3-furanyl)dodecahydro-6a,10b-dimethyl-4,10-dioxo-2H-naphtho[2,1-c]pyran-9-yl ester], the Ki in data set [6] (read-out: Ki at κ receptors) is 1930 nM; in [7], 73 nM. In addition, the “fold decrease in affinity at μ receptors compared to 13” value in data set [7] (ratio of Ki vs. 13) is listed as 21 fold.

Consider `COC(=O)[C@@H]1C[C@H](OS(C)(=O)=O)C(=O)[C@H]2[C@@]1(C)CC[C@H]1C(=O)O[C@H](c3ccoc3)C[C@]21C` [Compound 15, (2S,4aR,6aR,7R,9S,10aS,10bR)-9-(methanesulfonyloxy)-2-(3-furanyl)-dodecahydro-6a,10b-dimethyl-4,10-dioxo-2H-naphtho[2,1-c]pyran-7-carboxylic acid methyl ester], for which, in data set [6] (read-out: Ki at κ receptors), the Ki was found to be 2.3 nM. In addition, the functional activity result in data set [4] is “agonists”.

With `COC(=O)[C@@H]1C[C@H](O[Si](C)(C)C)C(=O)[C@H]2[C@@]1(C)CC[C@H]1C(=O)O[C@H](c3ccoc3)C[C@]21C` [Compound 16, (2S,4aR,6aR,7R,9S,10aS,10bR)-9-(trimethylsilanyloxy)-2-(3-furanyl)-dodecahydro-6a,10b-dimethyl-4,10-dioxo-2H-naphtho[2,1-c]pyran-7-carboxylic acid methyl ester], the “fold loss/decrease in affinity” value in data set [6] was determined as 847 fold. For the same molecule, the inhibitory constant (Ki) in data set [6] (read-out: Ki at κ receptors) was found to be 1610 nM.

As to `COC(=O)[C@@H]1C[C@H](O)[C@H](O)[C@H]2[C@@]1(C)CC[C@H]1C(=O)O[C@H](c3ccoc3)C[C@]21C` [Compound 18, (2S,4aR,6aR,7R,9S,10R,10aS,10bR)-9,10-(dihydroxy)-2-(3-furanyl)dodecahydro-6a,10b-dimethyl-4-oxo-2H-naphtho[2,1-c]pyran-7-carboxylic acid methyl ester], the “affinity at δ receptors” value in [8] is on record as “low affinity”. Besides, the “affinity at μ receptors” value in data set [7] was “low affinity”.

As to `COC(=O)[C@@H]1C[C@H](O)[C@H](O)[C@@H]2[C@@]3(C)C[C@@H](c4ccoc4)OC(=O)[C@H]3CC[C@]21C` [Compound 19, (2S,4aS,6aR,7R,9S,10R,10aS,10bR)-9,10-(dihydroxy)-2-(3-furanyl)dodecahydro-6a,10b-dimethyl-4-oxo-2H-naphtho[2,1-c]pyran-7-carboxylic acid methyl ester], the Ki in data set [6] was roughly 10000 nM; in data set [8] it was roughly 10 µM; in data set [7] it was roughly 10000 nM.

Take `COC(=O)[C@@H]1C[C@H](OC(C)=O)[C@H](OC(C)=O)[C@H]2[C@@]1(C)CC[C@H]1C(=O)O[C@H](c3ccoc3)C[C@]21C` [Compound 20, (2S,4aR,6aR,7R,9S,10R,10aS,10bR)-9,10-(diacetoxy)-2-(3-furanyl)dodecahydro-6a,10b-dimethyl-4-oxo-2H-naphtho[2,1-c]pyran-7-carboxylic acid methyl ester]: in data set [6], the “fold loss/decrease in affinity” value stood at 340 fold. The Ki in data set [6] (read-out: Ki at κ receptors) is 650 nM.

Consider `COC(=O)[C@@H]1C[C@H](OC(=N)C(Cl)(Cl)Cl)C(=O)[C@H]2[C@@]1(C)CC[C@H]1C(=O)O[C@H](c3ccoc3)C[C@]21C` [Compound 21, (2S,4aR,6aR,7R,9S,10aS,10bR)-9-(2,2,2-trichloroacetimidoyloxy)-2-(3-furanyl)-dodecahydro-6a,10b-dimethyl-4,10-dioxo-2H-naphtho[2,1-c]pyran-7-carboxylic acid methyl ester], for which the “fold loss/decrease in affinity” value in [6] is listed as 34 fold. The Ki in data set [6] (read-out: Ki at κ receptors) stood at 64 nM; in data set [8] (read-out: Ki at δ receptors), 6.47 µM.

On to `COC(=O)[C@@H]1C[C@H](OC(=O)Nc2ccccc2)C(=O)[C@H]2[C@@]1(C)CC[C@H]1C(=O)O[C@H](c3ccoc3)C[C@]21C` [Compound 22, (2S,4aR,6aR,7R,9S,10aS,10bR)-9-(phenylcarbamoyloxy)-2-(3-furanyl)-dodecahydro-6a,10b-dimethyl-4,10-dioxo-2H-naphtho[2,1-c]pyran-7-carboxylic acid methyl ester], for which, in [6], the “fold loss/decrease in affinity” value was 49 fold. For the same molecule, the Ki is 93 nM in data set [6] (read-out: Ki at κ receptors), 0.23 µM in data set [8] (read-out: Ki at δ receptors) and 16 nM in data set [7].

For `C=CCNC(=O)O[C@H]1C[C@@H](C(=O)OC)[C@]2(C)CC[C@H]3C(=O)O[C@H](c4ccoc4)C[C@]3(C)[C@H]2C1=O` [Compound 23, (2S,4aR,6aR,7R,9S,10aS,10bR)-9-(allylcarbamoyloxy)-2-(3-furanyl)-dodecahydro-6a,10b-dimethyl-4,10-dioxo-2H-naphtho[2,1-c]pyran-7-carboxylic acid methyl ester], the “fold loss/decrease in affinity” value in data set [6] is given as roughly 300 fold. In addition, in data set [6] (read-out: Ki at κ receptors), the Ki came out at 120 nM.
